Like-named read-outs stand apart in the source and are kept apart here.
Key:
[1] = test system: Fungal cells; experiment: Disk diffusion assay for antimicrobial activity; assay type: cell-based; details: 37° C., 24 hours; for zone of inhibition at 100 µg/disc: 100 μg per 6 mm disk, Sabouraud Dextrose Agar, read-out: zone of growth inhibition diameter; for zone appearance (clear = fungicidal, hazy = fungistatic): disk diffusion; for zone of growth inhibition diameter: positive control disks 2.5 and 10 μg
Description: (§1) Fungal cells were grown overnight from a single colony in 2-5 ml Sabouraud Dextrose Broth at 37° C. 1-5×10^6 were spread onto Sabouraud Dextrose Agar plates (Difco, Detroit, Mich.). Sterile 6 mm filter disks were evenly spaced with at least about 22 mm separation on the plates. To each disk, 100 μg of a compound to be tested was applied in 5-10 μl DMSO. On each plate, two disks containing 2.5 and 10 μg, respectively, of Amphotericin B (Sigma) and two disks containing 2.5 and 10 μg, respectively, of cerulenin (Sigma) were used as positive controls. A disk containing only DMSO served as the negative control. The plates were incubated at 37° C. for 24 hours and the zone of growth inhibition about each disk was visually examined and measured. Compound A and compound B typically produced clear zones of 8-12 mm diameter. Amphotericin B typically produced a clear zone of 8-10 mm diameter. Cerulenin typically produced a hazy zone of 20-25 mm diameter. A clear zone is indicative of fungicidal activity, while a hazy zone is indicative of fungistatic activity.

[2] = test system: Candida albicans (strains ATCC 10231 and ATCC 10261); experiment: Disk diffusion assay, Candida albicans; assay type: cell-based
Description: as §1

[3] = test system: Candida tropicalis (strain ATCC 13803); experiment: Disk diffusion assay, Candida tropicalis; assay type: cell-based
Description: as §1

[4] = test system: Candida Albicans strain B311A; experiment: MIC assay (Example 1B); assay type: cell-based; details: purification fractions, result in words
Description: The fractions from the purification were tested for antifungal activity against C. albicans (strain B311A available from Dr. Paul Actor, Temple University and strains ATCC Nos. 10231 and 10261) and C. tropicalis (strain 13803). Fungi were grown in 1× yeast nitrogen broth ("YNB") medium (BBL, Cockeysville, Md.) containing 15 μg/ml aspargine and 100 μg/ml kanamycin. Prior to the assay for antifungal activity, the fungus to be tested for susceptibility was grown overnight from a single colony in 5 ml of medium at 30° C. This overnight culture was diluted 1:10 with fresh medium and grown at 37° C. for 4 hours. A volume of 5 μl of extracts, dissolved in DMSO, was added to each separate well in a series of 96-well plates. 4,000 fungal cells were then added to each plate in 95 μl of medium. The optical densities of the wells were measured and the plates incubated at 37° C. The optical densities were again measured after 24 and 48 hours. Minimum inhibitory concentrations ("MICs") for the extracts were determined using this procedure wherein the extracts were serially diluted in medium prior to mixing with the 4,000 fungal cells.
Using the procedure described in the previous paragraph, it was determined that the MICs for compound A and compound B against Candida Albicans strain B311A grown in YNB medium were 25 μg/ml and 6.25 μg/ml, respectively. […]

[5] = target: T1, FAS from S. cereviseae (Saccharomyces cerevisiae, UniProt P07149+P19097); experiment: FAS inhibition assay (Example 1C); assay type: biochemical, Saccharomyces cerviseae; details: result in words
T1 construct: an FAS extract from Saccharomyces cerviseae was prepared; (the yeast cells); host or cells: Fleishmans' freeze dried yeast (Saccharomyces cerevisiae); lysate, 50% ammonium sulfate precipitate, dialyzed
Description: To test the compounds for FAS inhibitory activity, an FAS extract from Saccharomyces cerviseae was prepared. Freeze dried yeast (Fleishmans' freeze dried yeast, Specialty Brands, San Francisco, Calif.) 1 g, was hydrated in 5 mls deionized water for 15 minutes at 4° C. Subsequent extraction steps were conducted at a temperature between 4° C. and 10° C., except that in the cell lysis step the temperature may have briefly exceeded these boundaries. The cells were pelleted by centrifugation; the pelleted volume was measured; and the cells were resuspended in 5 vol. (5 mls per ml cell volume) extraction buffer [125 mM KH2PO4, pH 6.6, 1 mM EDTA, 1 mM DTT, 0.7 μg/ml pepstatin (Boehringer Mannheim, Indianapolis, Ind.), 0.2 μg/ml aprotinin (Boehringer Mannheim, Indianapolis, Ind.), 0.2 μg/ml leupeptin (Boehringer Mannheim, Indianapolis, Ind.)]. The cells were again pelleted and resuspended in 2 vol. extraction buffer. […]
105 μl of FAS extract was placed in each well of a polypropylene 96 well plate (Costar Corp. Cambridge, Mass.) and multiple 5 μl dilutions of compound A, compound B or negative control solution were introduced into each of the wells. […] The relative initial reaction rates in each well were measured by measuring the decrease in optical density at 340 nm using a UV Max microtiter plate reader (Molecular Devices, Sunnyvalle, Calif.).

[6] = test system: Fusarium acuminatum (strains ATCC 32965 and ATCC 32966); experiment: Disk diffusion assay, Fusarium acuminatum; assay type: cell-based
Description: as §1

[7] = test system: C. albicans strain ATCC 10231; experiment: Murine systemic model of candidiasis; assay type: in vivo, mice; details: for Deaths Each Day Post Inoculation: 10 mg/kg IP
Description: In vivo activity was determined using a murine systemic model of candidiasis. Groups of 5 to 10 mice were inoculated IV with 1-2×10^7 cells of C. albicans strain ATCC 10231 (10 times the lethal dose). One hour after inoculation, the candidate antifungal compounds were delivered IP. 10 mg/kg of compound A was injected into each mouse of the compound A treatment group. Two separate treatment groups received 30 and 100 mg/kg, respectively, of compound B. Amphotericin B was injected into a positive control treatment group at 10 mg/kg. All compounds were delivered in phosphate-buffered saline (PBS) and one treatment group received PBS. Twice daily thereafter the mice were observed, the number of dead mice recorded, and the dead mice removed. After nine days, the total mortality over the period was determined.
Using the same methodology, it was determined that the maximal tolerated dose in these mice (i.e., the maximum dose that caused no deaths within 72 hours following IP administration) of compound B was in excess of 200 mg/kg. The mice treated with 2108B or Amphotericin B injected IP in […] of phosphate buffered saline, pH 7.4 had the following treatment profiles: […]

[8] = target: T2, FAS (Candida albicans, UniProt P43098); experiment: FAS activity in extracts of treated C. albicans cultures (Example 10); assay type: cell-based
T2 construct: endogenous in cells; host or cells: Candida albicans strain 4918
T2 sequence (P43098 whole entry): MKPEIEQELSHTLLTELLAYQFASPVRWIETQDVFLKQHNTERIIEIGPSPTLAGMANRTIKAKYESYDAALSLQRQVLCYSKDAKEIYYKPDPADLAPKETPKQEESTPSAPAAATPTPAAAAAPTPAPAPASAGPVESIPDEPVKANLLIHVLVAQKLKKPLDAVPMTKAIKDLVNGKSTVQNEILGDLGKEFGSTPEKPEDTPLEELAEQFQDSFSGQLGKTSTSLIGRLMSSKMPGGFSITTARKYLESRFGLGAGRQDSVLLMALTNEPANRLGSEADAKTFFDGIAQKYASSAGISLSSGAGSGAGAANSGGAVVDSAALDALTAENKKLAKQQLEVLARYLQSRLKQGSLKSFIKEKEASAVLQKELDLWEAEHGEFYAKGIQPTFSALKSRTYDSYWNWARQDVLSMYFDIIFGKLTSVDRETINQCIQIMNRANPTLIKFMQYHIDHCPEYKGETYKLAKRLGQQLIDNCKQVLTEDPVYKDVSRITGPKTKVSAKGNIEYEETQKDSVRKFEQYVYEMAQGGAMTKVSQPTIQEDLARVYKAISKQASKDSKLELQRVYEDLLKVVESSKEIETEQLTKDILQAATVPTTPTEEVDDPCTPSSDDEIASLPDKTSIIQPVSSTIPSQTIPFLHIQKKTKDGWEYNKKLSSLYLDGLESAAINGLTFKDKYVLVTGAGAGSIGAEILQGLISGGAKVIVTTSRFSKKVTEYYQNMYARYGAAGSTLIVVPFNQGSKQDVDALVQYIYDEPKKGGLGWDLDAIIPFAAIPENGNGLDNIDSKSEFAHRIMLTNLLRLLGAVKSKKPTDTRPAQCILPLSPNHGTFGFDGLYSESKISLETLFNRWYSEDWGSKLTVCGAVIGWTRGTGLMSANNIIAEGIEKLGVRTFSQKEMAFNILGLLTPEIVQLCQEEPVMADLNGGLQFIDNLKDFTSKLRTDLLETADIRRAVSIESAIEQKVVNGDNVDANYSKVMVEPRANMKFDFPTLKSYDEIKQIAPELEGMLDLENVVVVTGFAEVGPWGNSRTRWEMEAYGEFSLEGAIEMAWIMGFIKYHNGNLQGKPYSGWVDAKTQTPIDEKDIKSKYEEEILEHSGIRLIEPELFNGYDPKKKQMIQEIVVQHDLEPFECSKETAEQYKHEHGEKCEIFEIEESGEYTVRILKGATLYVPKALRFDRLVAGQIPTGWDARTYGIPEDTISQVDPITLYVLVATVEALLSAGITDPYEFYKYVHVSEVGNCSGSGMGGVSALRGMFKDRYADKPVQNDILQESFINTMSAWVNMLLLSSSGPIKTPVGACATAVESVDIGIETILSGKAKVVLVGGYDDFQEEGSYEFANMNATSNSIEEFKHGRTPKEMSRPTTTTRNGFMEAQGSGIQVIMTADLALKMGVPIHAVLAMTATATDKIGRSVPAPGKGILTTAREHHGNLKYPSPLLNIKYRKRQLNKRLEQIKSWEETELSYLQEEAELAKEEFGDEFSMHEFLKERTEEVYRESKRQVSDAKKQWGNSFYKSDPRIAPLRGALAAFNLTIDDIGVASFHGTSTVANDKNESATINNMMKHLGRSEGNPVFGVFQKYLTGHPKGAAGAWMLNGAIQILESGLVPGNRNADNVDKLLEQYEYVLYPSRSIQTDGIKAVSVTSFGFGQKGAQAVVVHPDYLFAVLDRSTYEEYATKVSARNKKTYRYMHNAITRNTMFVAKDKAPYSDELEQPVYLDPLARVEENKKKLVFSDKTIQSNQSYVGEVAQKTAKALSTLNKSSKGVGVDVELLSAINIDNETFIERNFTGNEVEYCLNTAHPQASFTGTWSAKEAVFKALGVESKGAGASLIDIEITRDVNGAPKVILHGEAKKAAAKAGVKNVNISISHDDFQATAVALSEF
T2 sequence (P34731 whole entry partner): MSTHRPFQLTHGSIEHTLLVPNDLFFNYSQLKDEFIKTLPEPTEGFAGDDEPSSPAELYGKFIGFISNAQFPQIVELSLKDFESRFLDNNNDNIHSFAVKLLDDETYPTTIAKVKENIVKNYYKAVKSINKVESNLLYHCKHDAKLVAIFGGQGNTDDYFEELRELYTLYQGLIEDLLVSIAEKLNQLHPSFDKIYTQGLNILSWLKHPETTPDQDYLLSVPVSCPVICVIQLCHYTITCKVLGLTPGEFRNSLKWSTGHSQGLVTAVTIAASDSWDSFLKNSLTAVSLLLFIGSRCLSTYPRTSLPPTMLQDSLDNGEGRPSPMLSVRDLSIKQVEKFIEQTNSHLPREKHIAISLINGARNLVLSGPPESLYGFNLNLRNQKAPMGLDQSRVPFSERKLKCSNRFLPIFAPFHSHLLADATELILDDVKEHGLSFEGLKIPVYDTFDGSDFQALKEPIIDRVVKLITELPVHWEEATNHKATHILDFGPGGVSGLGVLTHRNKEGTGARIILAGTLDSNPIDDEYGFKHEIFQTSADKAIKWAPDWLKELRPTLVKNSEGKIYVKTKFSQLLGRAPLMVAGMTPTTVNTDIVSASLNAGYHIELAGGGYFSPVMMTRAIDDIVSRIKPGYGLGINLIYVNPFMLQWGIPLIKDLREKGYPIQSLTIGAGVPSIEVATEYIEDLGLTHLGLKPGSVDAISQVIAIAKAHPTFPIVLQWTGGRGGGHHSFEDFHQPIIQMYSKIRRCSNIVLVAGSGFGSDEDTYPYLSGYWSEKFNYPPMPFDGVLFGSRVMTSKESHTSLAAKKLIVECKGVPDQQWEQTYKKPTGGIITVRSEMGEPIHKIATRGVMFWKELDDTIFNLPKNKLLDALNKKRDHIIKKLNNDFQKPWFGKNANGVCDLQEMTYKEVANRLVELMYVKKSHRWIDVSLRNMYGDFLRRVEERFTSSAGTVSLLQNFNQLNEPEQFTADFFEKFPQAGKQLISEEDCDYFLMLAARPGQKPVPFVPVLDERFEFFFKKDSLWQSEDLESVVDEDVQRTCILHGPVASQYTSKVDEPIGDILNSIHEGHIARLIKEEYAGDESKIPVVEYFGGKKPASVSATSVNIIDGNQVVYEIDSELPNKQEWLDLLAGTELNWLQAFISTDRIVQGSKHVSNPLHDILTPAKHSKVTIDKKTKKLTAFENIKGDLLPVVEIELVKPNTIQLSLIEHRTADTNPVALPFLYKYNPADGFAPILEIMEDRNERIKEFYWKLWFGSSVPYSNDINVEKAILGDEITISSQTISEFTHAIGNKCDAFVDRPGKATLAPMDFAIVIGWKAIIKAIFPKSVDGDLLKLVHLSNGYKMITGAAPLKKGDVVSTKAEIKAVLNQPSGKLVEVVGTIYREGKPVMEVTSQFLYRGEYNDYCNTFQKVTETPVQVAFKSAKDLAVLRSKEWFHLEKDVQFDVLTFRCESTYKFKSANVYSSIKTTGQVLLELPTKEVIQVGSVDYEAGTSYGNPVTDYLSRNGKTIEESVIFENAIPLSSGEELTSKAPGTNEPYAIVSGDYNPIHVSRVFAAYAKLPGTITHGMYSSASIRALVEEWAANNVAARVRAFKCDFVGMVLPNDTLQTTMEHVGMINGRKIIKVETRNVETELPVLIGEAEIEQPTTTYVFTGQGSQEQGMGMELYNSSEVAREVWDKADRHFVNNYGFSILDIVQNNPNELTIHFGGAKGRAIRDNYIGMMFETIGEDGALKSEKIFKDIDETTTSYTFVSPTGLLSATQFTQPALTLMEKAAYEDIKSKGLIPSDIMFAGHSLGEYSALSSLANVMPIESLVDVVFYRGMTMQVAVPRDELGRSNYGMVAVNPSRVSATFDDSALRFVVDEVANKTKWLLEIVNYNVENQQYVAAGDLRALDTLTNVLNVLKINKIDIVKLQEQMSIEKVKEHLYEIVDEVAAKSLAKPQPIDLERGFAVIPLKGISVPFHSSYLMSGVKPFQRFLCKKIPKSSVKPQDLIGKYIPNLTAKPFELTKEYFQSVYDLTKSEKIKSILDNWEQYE
Description: C. Albicans strain 4918 (available from Dr. Ronald Cihlar, Georgetown University Medical Center, Washington, D.C.) was grown in minimal medium (M63 media available from Difco, Detroit, Mich.) at 37° C. to mid-log phase. 10 μg/ml cerulenin and 25 μg/ml of compound B were added to separate cultures. At 15 minute intervals, 20 ml samples were removed and extracts prepared by mechanical extraction as in Example 1C, except that the ammonium sulfate precipitation step was not applied. The extract was diluted to 1 ml to form a solution containing 0.4M potassium phosphate, pH 7.3, 0.125 μM dithiothreitol, 50 μM acetyl-CoA, 100 μM NADPH. After incubation at 37° C. for 5 minutes, 100 μM malonyl-CoA containing 0.5 μCi [2-^14 C]-malonyl-CoA (Amersham, Arlington Heights, Ill.). After 10 minutes at 37° C., the fatty acid synthesis reaction was terminated by adding 30 μl of 60% perchloric acid (v/v) and 1 ml ethanol. Four volumes of pet. ether were added to each reaction incubation to extract the fatty acids. The relative incorporation of malonyl-CoA into fatty acids was determined by liquid scintillation counting.

[9] = 0.5 h, read-out: Percent Remaining FAS Activity

| Structure (SMILES) | zone of inhibition at 100 µg/disc [1] [mm] | zone appearance (clear = fungicidal, hazy = fungistatic) [1] | antimicrobial activity [2] | antimicrobial activity [3] | activity in the MIC assay of Example 1B [4] | activity in the enzyme inhibition assay of Example 1C [5] | antimicrobial activity [6] | zone of growth inhibition diameter [1] | other results |
| --- | --- | --- | --- | --- | --- | --- | --- | --- | --- |
| C/C=C/C=C/C=C/C1=CC2=CC(=O)C(C)(OC(=O)CC(C)O)C(=O)C23OC3O1 (centres unmarked) [Compound A] | 8 to 12 | clear zones | had antimicrobial activity | had antimicrobial activity | retained activity | retained activity | had antimicrobial activity | – | – |
| C[C@@H]1[C@H](O)[C@@H](C)/C=C/C=C/C=C/C=C/C=C/C=C/C=C/[C@H](O[C@@H]2O[C@H](C)[C@@H](O)[C@H](N)[C@@H]2O)C[C@@H]2O[C@](O)(C[C@@H](O)C[C@@H](O)[C@H](O)CC[C@@H](O)C[C@@H](O)CC(=O)O[C@H]1C)C[C@H](O)[C@H]2C(=O)O [Amphotericin B] | – | clear zone | – | – | – | – | – | 8-10 mm | % Survival ([7]; 10 mg/kg IP one hour after inoculation, nine days): 80%; Deaths Each Day Post Inoculation ([7]; day 0): 0; Deaths Each Day Post Inoculation ([7]; day 1): 0; Deaths Each Day Post Inoculation ([7]; day 3): 0; Deaths Each Day Post Inoculation ([7]; day 5): 0; Deaths Each Day Post Inoculation ([7]; day 6): 0; Deaths Each Day Post Inoculation ([7]; day 7): 0; Deaths Each Day Post Inoculation ([7]; day 8): 0; Deaths Each Day Post Inoculation ([7]; day 9): 0 |
| C/C=C/C/C=C/CCC(=O)[C@H]1O[C@H]1C(N)=O [Cerulenin, cerulenin] | – | hazy zone | – | – | – | – | – | 20-25 mm | remaining activity at 10 µg/mL ([8]; 0.25 h, read-out: Percent Remaining FAS Activity): 20%; remaining activity at 10 µg/mL [8, 9]: 12% |
| C/C=C/C=C/C=C/C1=CC2=CC(=O)C(C)(OC(=O)CC(C)O)C(=O)C2=CO1 (centres unmarked) [Compound B] | 8 to 12 | clear zones | had antimicrobial activity | had antimicrobial activity | retained activity | not directly inhibitory of FAS | had antimicrobial activity | – | FAS activity of cell extracts made after exposure [8]: markedly reduced FAS activity; remaining activity at 25 µg/mL [8, 9]: 40% |
| C/C=C/C=C/C=C/C1=CC2=CC(=O)C(C)(OC(=O)CC(O)CC(C)O)C(=O)C23OC3O1 (centres unmarked) [patulodin] | 7 | – | – | – | – | – | – | – | – |
